# Test results as given in patent US20080103185A1, “Process for Producing Thiazolidinedione Compound and Production Intermediate Thereof” (DAIICHI SANKYO COMPANY, LIMITED, priority 2005, published 2008).
# Test: Test for quality and stability over time of compound (III^1) crystals, HPLC peak area content
# Format: physicochemical
# Conditions: HPLC area %
# Method: Test for quality and stability over time of tert-butyl N-{2-{4-[(2,4-dioxothiazolidin-5-yl)methyl]phenoxyacetylamino}-5-methoxyphenyl}-N-methylcarbamate (compound (III^1))
# Quality of four samples (the crystals obtained in Example 3, the crystals obtained in Example 3 and stored at 40° C. for 40 days, the purified crystals obtained in Example 4 and the purified crystals obtained in Example 4 and stored at 40° C. for 42 days) was analyzed. Quality was analyzed by the following method.
# A solution of about 10 mg/L of the compound (III^1) in acetonitrile-water (4:1) was prepared.
# About 20 μL of the sample solution was analyzed by high-performance liquid chromatography under the following conditions.
# Column: L-column ODS 4.6×250 mm (Chemicals-Evaluation and Research Institute, Japan)
# Mobile phase: 0.02 M ammonium acetate solution/acetonitrile mixture (55:45)
# Detection wavelength: 220 nm
# Measurement temperature: 40° C.
# Peak areas were determined from chromatograms, respectively, to provide a content of each component (%) 100× (peak area of each component)/(total peak area of all components).
"content of component at relative retention time 3.01 (purified crystals stored at 40° C. for 42 days, immediately after drying 0.04) [%]","content of component at relative retention time 0.43 (purified crystals stored at 40° C. for 42 days, immediately after drying 0.07) [%]","content of component at relative retention time 0.46 (purified crystals stored at 40° C. for 42 days, immediately after drying 0.08) [%]","content of component at relative retention time 0.21 (purified crystals stored at 40° C. for 42 days, immediately after drying 0.19) [%]","Total of other components (purified crystals stored at 40° C. for 42 days, immediately after drying 0.25) [%]","Total of impurities (purified crystals stored at 40° C. for 42 days, immediately after drying 0.63) [%]","content of test substance (relative retention time 1.00) (purified crystals stored at 40° C. for 42 days, immediately after drying 99.37) [%]","content of component at relative retention time 3.01 (crystals stored at 40° C. for 40 days, immediately after drying 0.05) [%]","content of component at relative retention time 0.46 (crystals stored at 40° C. for 40 days, immediately after drying 0.16) [%]","content of component at relative retention time 0.43 (crystals stored at 40° C. for 40 days, immediately after drying 0.39) [%]","Total of other components (crystals stored at 40° C. for 40 days, immediately after drying 0.54) [%]","content of component at relative retention time 0.21 (crystals stored at 40° C. for 40 days, immediately after drying 0.60) [%]","Total of impurities (crystals stored at 40° C. for 40 days, immediately after drying 1.74) [%]","content of test substance (relative retention time 1.00) (crystals stored at 40° C. for 40 days, immediately after drying 98.26) [%]",SMILES
0.03,0.07,0.09,0.26,0.20,0.65,99.35,–,–,–,–,–,–,–,"COc1ccc(NC(=O)COc2ccc(CC3SC(=O)NC3=O)cc2)c(N(C)C(=O)OC(C)(C)C)c1 (centres unmarked) [Purified crystals of Example 4, tert-Butyl N-{2-{4-[(2,4-dioxothiazolidin-5-yl)methyl]phenoxyacetylamino}-5-methoxyphenyl}-N-methylcarbamate]"
–,–,–,–,–,–,–,0.05,0.48,0.32,0.56,0.63,2.04,97.96,"COc1ccc(NC(=O)COc2ccc(CC3SC(=O)NC3=O)cc2)c(N(C)C(=O)OC(C)(C)C)c1 (centres unmarked) [Crystals of Example 3, tert-Butyl N-{2-{4-[(2,4-dioxothiazolidin-5-yl)methyl]phenoxyacetylamino}-5-methoxyphenyl}-N-methylcarbamate]"
